The test system of assay [1] is B16-melanoma cells adhesion to FN. Nature of the assay: Inhibition of B16-melanoma cell adhesion to FN. The assay is classed as cell-based, murine. To be noted: for B-16 melanoma cell adhesion to FN, in words: Table 2A; for % inhibition of adhesion of B16-melanoma cells to FN / % Adhesion of B16-melanoma cells to FN: surrogates 0.2 mM; for % inhibition of adhesion of B16-melanoma cells to FN: * P<0.05; for % Adhesion of B16-melanoma cells to FN: none 75 ± 5. As to the method:
To examine the adhesive properties of tumor cells, 1 μg/50μ/well of FN or 0.3μg/well of VN were added to 96-flat bottom microtiter wells for 12 h. Unbound proteins were then washed away and remaining binding sites were blocked with 0.1% BSA added to the wells for 2 h and washed. Murine B16-melanoma F-1 cells were metabolically labeled with ^35 S-methionine (New England Nuclear) for 2 h, chased for 18 h and extensively washed. The cell suspension was resuspened in RPMI supplemented with 1% BSA containing 1 mM CaCl2 and MgCl2. Tumor cell adhesion to control wells or to wells coated with BSA was always 2-5%. The tested non-peptidic surrogates, 0.2 mM in PBS, were used to pretreat the tumor cells for 15 min before seeding the cells *, P<0.05.
In a first series of experiments, the potential inhibitory action of the RGD surrogate SF-6,5 on adhesion of B16 melanoma cells to FN or VN was compared to that of the RGE surrogate SF-6,6 and to that of RGD, GRGDSPK and GRGESP peptides.
In a further set of experiments, the inhibitory activity of the RGD surrogates SF-6,5 and NS-11 on the adhesion of B16 murine melanoma cells to FN was compared to that of the GRGDSP peptide.

Another assay concerns the target GPIIb-IIIa (Homo sapiens, UniProt P05106+P08514). Nature of the assay: Inhibition of the binding capacity of anti-GPIIb-IIIa mAb (PAC-1) to platelets. The conditions noted are these: FIG. 6, 0-500μM, ADP-activated platelets. As to the method: To investigate whether the RGD surrogates actually bind to the GPIIb-IIIa integrin, their ability to compete with a monoclonal antibody (mAb) specific to GPIIb-IIIa was investigated. This mAb, designated PAC-1, specific for the activated receptor, binds GPIIb-IIIa in an RGD-dependent manner (Taub, R. et al. (1989) J.Biol.Chem. 264: 259).
ADP-activated platelets were incubated with FITC-conjugated PAC-1 mAb in the presence of various peptidic and non-peptidic compounds, as follows: the platelet rich plasma were gel-filtrated into modified Tryode's solution (137.5 mM Nacl, 4 mN Hepes, 2.6 mM KCl,1 mM MgCl2, 3.3 mM NaH2 PO4, 5.6 mM glucose at pH 7.4) containing 350μg/ml BSA (which was used as the incubation buffer in further steps; Tryode's/BSA). The final count in the cell assays was 2×10^6 per ml. The cells were then activated with 10μM ADP and epinephrine. To examine RGD peptides and related analogues as competitors for the binding capacity of the PAC-1 mAb to platelets, the cells were incubated in 50μl Tryode's/BSA supplemented with 1 mM CaCl2 for 30 min in 25° C., in the presence of 0-500μM peptides or peptide-analogues with 10μg/ml FITC labeled PAC-1. The fluorescence profile of the cells was determined using FACScan (Beckton Dickenson) at 488 nm. In FIG. 6: GRGDSPK (empty circles), GRGESP (filled triangles), compound SF-6,5 (empty triangles), compound SF-6,6 (filled circles) (the data shown here represent results obtained in one of three experiments which were essentially identical).

The next assay deals with DTH response to OX. Description: Inhibition of DTH response to OX in mice (ear swelling). The assay is classed as in vivo, BALB/c mice. More on the design: % inhibition of DTH response: concentration or dose not given beside the values. The conditions noted are these: I.V.; for Δ Ear swelling: ± SD, positive control 21 ± 2. As to the method: To examine the regulatory role of SF-6,5 on T cell immunity and lymphocyte migration in vivo, a delayed-type hypersensitivity (DTH) reaction experiment was performed in which groups of BALB/c mice (6 mice per group) were sensitized on the shaved abdomen with the skin allergen 4-ethoxymethylene-2-phenyl oxazolone (OX) (10 μl of 3% OX in acetone/olive oil) and challenged again 5 days later by applying OX to their ears. The increment in ear swelling was recorded 24 hours later as a measure of DTH. The individual measuring of ear swelling was blinded to the identity of the groups of mice. GRGDS, RGD surrogate compound SF-6,5 and RGE surrogate compound SF-6,6 were administrated I.V. in 200μl PBS into the tail vein on the indicated days. Control groups of mice were treated identically with PBS.
These findings indicate that modulation of cell-mediated immune reactions in vivo may be achieved by relatively low doses of non-peptidic RGD analogue, most probably by means of interfering with lymphocyte migration.

Setting [2] is: injected on days 1 to 6, * P<0.01.

“Also recorded” adds a separate entry of the source.

Consider `N=C(N)NCCCCCC(=O)NCCCCC(=O)O` [SF-6,5, 6-aza-7-oxo-12-quanidino-dodecanoic acid], for which, in assay [1], the “B-16 melanoma cell adhesion to FN, in words” value was “inhibited tumor cell adhesion to both FN and VN”. In addition, the “% inhibition of adhesion of B16-melanoma cells to FN” value (“% inhibition of adhesion … to FN” for short) in assay [1] turned out to be 55%. The “% Adhesion of B16-melanoma cells to FN” value in assay [1] is reported as 34 ± 4%. Besides, the “Inhibition of PAC-1 binding to platelets, in words” value (“Inhibition of PAC-1 binding” for short) on GPIIb-IIIa was “inhibited PAC-1 staining of the cells in a dose-dependent manner”. Further, the “Inhibition of DTH response, in words” value in the assay on DTH response to OX was “inhibited the DTH response best when the mice were injected for 6 days; also recorded: better inhibitor of the DTH response than the GRGDS peptide”. In addition, the “% inhibition of DTH response” value in the assay with DTH response to OX (injected on day 1) was found to be 20%; with DTH response to OX (injected on days 1, 3), 34%; in the assay on DTH response to OX (injected on days 1, 3, 5), 62%; in the assay on DTH response to OX (injected on days 1 to 6) it was 95%. In addition, the “Δ Ear swelling” value in the assay on DTH response to OX (injected on day 1) is recorded as 16 ± 3 × 10^-2 mm; in the assay on DTH response to OX (injected on days 1, 3, 5, * P<0.01) it was 8 ± 2 × 10^-2 mm; with DTH response to OX (injected on days 1, 3) it was 13 ± 2 × 10^-2 mm; in the assay on DTH response to OX (setting [2]), 2 ± 1 × 10^-2 mm.
Take GRGDSPK [RGD peptide (Sigma)]: in assay [1], the “B-16 melanoma cell adhesion to FN, in words” value is listed as “found to be inhibited by the GRGDSPK peptide”; the “% inhibition of adhesion … to FN” value worked out at 80%; the “% Adhesion of B16-melanoma cells to FN” value was 15 ± 4%. Moreover, in the assay with GPIIb-IIIa, the “Inhibition of PAC-1 binding” value is listed as “inhibited PAC-1 staining of the cells in a dose-dependent manner”. The “% inhibition of DTH response” value in the assay on DTH response to OX (injected on days 1 to 6) is given as 20%. Further, the “Δ Ear swelling” value in the assay on DTH response to OX (setting [2]) is given as 17 ± 3 × 10^-2 mm.
In the case of `N=C(N)NCCCCCC(=O)NCCCCCC(=O)O` [SF-6,6], in assay [1], the “% inhibition of adhesion … to FN” value amounted to 0% and the “% Adhesion of B16-melanoma cells to FN” value came out at 75 ± 9%. The “Inhibition of PAC-1 binding” value on GPIIb-IIIa was “failed to inhibit PAC-1 binding to the platelet integrin receptor”. In the assay on DTH response to OX (injected on days 1 to 6), the “% inhibition of DTH response” value was “None”. Moreover, in the assay on DTH response to OX (setting [2]), the “Δ Ear swelling” value is listed as 23 ± 4 × 10^-2 mm.

For the origin of these results see patent US5352667A, “Non-peptidic surrogates of the Arg-Gly-Asp sequence and pharmaceutical compositions comprising them” (priority 1991, dated 1994).
